Earlier results on one molecule are cited in patent US9005185B2, “Nanochanneled device and related methods” (The Board of Regents of the University of Texas System, priority 2008, dated 2015).

The target of this data set is T1, Aromatase (Homo sapiens, UniProt P11511).
T1 sequence (P11511 1-503): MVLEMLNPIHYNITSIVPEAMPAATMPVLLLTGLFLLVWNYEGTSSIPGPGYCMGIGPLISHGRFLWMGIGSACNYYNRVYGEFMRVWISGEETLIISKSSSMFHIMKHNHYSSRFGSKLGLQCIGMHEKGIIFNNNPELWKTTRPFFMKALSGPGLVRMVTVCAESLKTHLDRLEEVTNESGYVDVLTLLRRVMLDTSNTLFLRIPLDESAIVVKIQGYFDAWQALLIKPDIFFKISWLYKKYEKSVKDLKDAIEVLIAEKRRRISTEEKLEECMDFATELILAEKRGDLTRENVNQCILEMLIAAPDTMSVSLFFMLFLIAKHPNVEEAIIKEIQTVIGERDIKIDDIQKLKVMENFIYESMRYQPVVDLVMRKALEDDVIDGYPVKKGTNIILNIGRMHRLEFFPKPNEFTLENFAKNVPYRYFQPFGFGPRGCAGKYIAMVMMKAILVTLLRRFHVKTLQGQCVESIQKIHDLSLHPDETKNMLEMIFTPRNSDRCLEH

With `N#Cc1ccc(C(c2ccc(C#N)cc2)n2cncn2)cc1` [letrozole], the inhibits estrogen biosynthesis result is “approximately 99%”.
